Data as given in ChEMBL document CHEMBL1132598, “Synthesis, corticotropin-releasing factor receptor binding affinity, and pharmacokinetic properties of triazolo-, imidazo-, and pyrrolopyrimidines and -pyridines” (J Med Chem, 1999).

Target: T1, Corticotropin-releasing factor receptor 1 (Homo sapiens, UniProt P34998)
T1 sequence (P34998 whole entry): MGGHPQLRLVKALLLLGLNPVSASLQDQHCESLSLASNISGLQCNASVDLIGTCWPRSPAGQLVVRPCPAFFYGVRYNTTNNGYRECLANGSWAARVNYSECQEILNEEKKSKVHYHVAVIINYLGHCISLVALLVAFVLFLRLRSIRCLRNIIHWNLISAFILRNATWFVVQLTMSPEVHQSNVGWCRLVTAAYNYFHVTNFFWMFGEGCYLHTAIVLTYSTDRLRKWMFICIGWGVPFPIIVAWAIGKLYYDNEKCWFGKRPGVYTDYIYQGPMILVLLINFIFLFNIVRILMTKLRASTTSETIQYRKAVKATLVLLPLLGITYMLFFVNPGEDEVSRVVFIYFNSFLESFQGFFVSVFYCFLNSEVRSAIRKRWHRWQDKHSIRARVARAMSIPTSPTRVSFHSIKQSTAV
Test: Binding affinity to recombinant human Corticotropin releasing factor receptor 1 (hCRF1) expressed in 293EBNA cells
Type: cell-based

SMILES	Ki
CCCC(CC)Nc1nc(C)nc2c1nnn2-c1ccc(C(C)C)cc1Br (stereo unspecified)	2.8 nM
Cc1nc(N(CCO)CCO)c2nnn(-c3ccc(C(C)C)cc3Br)c2n1	3460 nM
COCCN(CCOC)c1nc(C)nc2c1ncn2-c1ccc(C(C)C)cc1Br	5.9 nM
COCCN(CCOC)c1nc(C)nc2c1nnn2-c1ccc(C(C)C)cc1SC	15.3 nM
COCCN(CCOC)c1nc(C)nc2c1nnn2-c1ccc(OC(F)(F)F)cc1Br	33.2 nM
CCCCN(CCCC)c1nc(C)nc2c1nnn2-c1ccc(C(C)C)cc1Br	32.5 nM
CCCCN(CC)c1nc(C)nc2c1ncn2-c1c(C)cc(C)cc1C	25 nM
COCCN(CCOC)c1nc(C)nc2c1ncn2-c1c(C)cc(C)cc1C	20.7 nM
CCCCN(CC)c1cc(C)nc2c1nnn2-c1ccc(C(C)C)cc1SC	2.2 nM
CCCC(CN(C)C)Nc1nc(C)nc2c1nnn2-c1ccc(C(C)C)cc1Br (stereo unspecified)	38.7 nM
CCC(Nc1nc(C)nc2c1nnn2-c1ccc(C(C)C)cc1Br)C(=O)OC (stereo unspecified)	19.4 nM
COCC(Cc1ccccc1)Nc1nc(C)nc2c1nnn2-c1ccc(C(C)C)cc1Br (stereo unspecified)	36.7 nM
COCC(Cc1ccccc1)Nc1nc(C)nc2c1nnn2-c1c(C)cc(C)cc1C (stereo unspecified)	27.7 nM
CCN(CCOC)c1nc(C)nc2c1nnn2-c1ccc(C(C)C)cc1Br	10.5 nM
COCCN(CCOC)c1cc(C)nc2c1nnn2-c1ccc(C(C)C)cc1Br	4.7 nM
COCCN(CCOC)c1nc(C)nc2c1ncn2-c1c(Br)cc(OC)cc1OC	31.3 nM
CCC(CC)Nc1nc(C)nc2c1nnn2-c1ccc(C(C)C)cc1Br	5.2 nM
Cc1nc(N2CCCC2)c2nnn(-c3ccc(C(C)C)cc3Br)c2n1	194 nM
COCCN(CCOC)c1nc(C)nc2c1nnn2-c1ccc(N(C)C)cc1Br	10.5 nM
COCCN(CCOC)c1cc(C)nc2c1nnn2-c1ccc(C(C)C)cc1S(C)(=O)=O	476 nM

SMILES	Ki
CCCCN(CC)c1nc(C)nc2c1nnn2-c1ccc(N(C)C)cc1C(F)(F)F	15.4 nM
CCCCC(CC)Nc1nc(C)nc2c1nnn2-c1ccc(C(C)C)cc1Br (stereo unspecified)	3.1 nM
COCC(COC)Nc1nc(C)nc2c1nnn2-c1ccc(C(C)C)cc1Br	10.3 nM
CCCCc1nc2c(N(CC)CCCC)nc(C)nc2n1-c1c(Cl)cc(OC)cc1OC	22 nM
CCCCN(CC)c1nc(C)nc2c1nnn2-c1c(C)cc(C)cc1C	27.5 nM
CCCCN(CC)c1ncnc2c1nnn2-c1ccc(C(C)C)cc1Br	287 nM
CCN(CCOC)c1nc(C)nc2c1nnn2-c1c(C)cc(C)cc1C	20.7 nM
CCCC(Nc1nc(C)nc2c1nnn2-c1ccc(C(C)C)cc1Br)C(=O)N(C)C (stereo unspecified)	235 nM
COCCNc1nc(C)nc2c1ncn2-c1ccc(C(C)C)cc1Br	210 nM
C=CCN(CCOC)c1nc(C)nc2c1nnn2-c1ccc(C(C)C)cc1Br	4.3 nM
CCN(CC)c1nc(C)nc2c1nnn2-c1ccc(C(C)C)cc1Br	25.3 nM
CCCCNc1nc(C)nc2c1nnn2-c1ccc(C(C)C)cc1Br	69.6 nM
CCCC(CCC)Nc1nc(C)nc2c1nnn2-c1ccc(Br)cc1Br	0.8 nM
CCCCN(CC)c1nc(C)nc2c1nc(C(F)(F)F)n2-c1ccc(C(C)C)cc1Br	1.4 nM
CCCCN(CC)c1cc(C)nc2c1nc(C)n2-c1ccc(C(C)C)cc1Br	3.9 nM
COCCN(CC1CC1)c1nc(C)nc2c1nnn2-c1ccc(C(C)C)cc1Br	4.6 nM
COCCN(CCOC)c1ncnc2c1nnn2-c1ccc(C(C)C)cc1Br	203 nM
CCCC(CCC)Nc1nc(C)nc2c1nnn2-c1c(C)cc(C)cc1C	4 nM
CCCC(CC)Nc1nc(C)nc2c1ncn2-c1ccc(C(C)C)cc1Br (stereo unspecified)	4.4 nM
CCC(CC)Oc1nc(C)nc2c1ncn2-c1ccc(C(C)C)cc1Br	3.5 nM

Further compounds by falling Ki, results first:

Ki	SMILES
3920 nM	COCCN(CCOC)c1nc(C)nc2c1nnn2-c1ccc(C(C)C)cc1
416 nM	COCCN(CCOC)c1nc(C)nc2c1nnn2-c1c(C)cc(C)nc1C
291 nM	COCCCNc1nc(C)nc2c1nnn2-c1ccc(C(C)C)cc1Br
242 nM	COCCNc1nc(C)nc2c1nnn2-c1ccc(C(C)C)cc1Br
201 nM	Cc1cc(C)c(-n2c(C)c(C)c3c(N4CCOCC4)nc(C)nc32)c(C)c1
120 nM	Cc1nc(NC2CCCC2)c2nnn(-c3ccc(C(C)C)cc3Br)c2n1
100 nM	CCCCN(CC)c1nc(C)nc2c1nnn2-c1ccc(S(C)(=O)=O)cc1Br
66.9 nM	COCCCN(CCOC)c1nc(C)nc2c1nnn2-c1ccc(C(C)C)cc1Br
64 nM	COCCN(CCO)c1nc(C)nc2c1nnn2-c1ccc(C(C)C)cc1Br
48.2 nM	COCCN(CCOC)c1nc(C)nc2c1nnn2-c1c(Br)cc(OC)cc1N(C)C
39.7 nM	CCOCC(COCC)Oc1nc(C)nc2c1nnn2-c1ccc(C(C)C)cc1Br
33.7 nM	CCCCN(CC)c1nc(C)nc2c1nnn2-c1ccc(C(C)=O)cc1Br
28.3 nM	COCCN(CCOC)c1nc(C)nc2c1nnn2-c1c(Br)cc(OC)cc1OC
27.3 nM	CCC(CO)Nc1nc(C)nc2c1c(C)c(C)n2-c1c(C)cc(C)cc1C (stereo unspecified)
25.3 nM	CCC(CO)Nc1nc(C)nc2c1nnn2-c1ccc(C(C)C)cc1Br (stereo unspecified)
24.1 nM	COCCN(CCOC)c1nc(C)nc2c1nnn2-c1c(C)cc(C)cc1C
23.5 nM	COCCN(CCOC)c1nc(C)nc2c1nnn2-c1ccc(N(C)C)cc1C(F)(F)F
21 nM	COCCN(CCOC)c1nc(C)nc2c1nnn2-c1c(Cl)cc(OC)cc1OC
20.4 nM	CCCCN(CC)c1nc(C)nc2c1nnn2-c1ccc(Br)cc1Br
10.6 nM	CCCCN(CC)c1nc(C)nc2c1nnn2-c1ccc(SC)cc1Br
9.8 nM	COCCN(CCOC)c1cc(C)nc2c1nc(C)n2-c1ccc(C(C)C)cc1Br

Ki	SMILES
9.2 nM	CCN(CCOC)c1nc(C)nc2c1ncn2-c1ccc(C(C)C)cc1Br
7.6 nM	CCCCC(CC)Nc1nc(C)nc2c1nnn2-c1c(C)cc(C)cc1C (stereo unspecified)
7.4 nM	COCCN(CCOC)c1nc(C)nc2c1nnn2-c1ccc(Br)cc1Br
7.1 nM	COCC(COC)Oc1nc(C)nc2c1nnn2-c1ccc(C(C)C)cc1Br
7.1 nM	COCCN(CCOC)c1nc(C)nc2c1c(C)c(C)n2-c1c(C)cc(C)cc1C
7.1 nM	CCCC(C)Nc1nc(C)nc2c1nnn2-c1c(C)cc(C)cc1C (stereo unspecified)
6.7 nM	COCCN(CCOC)c1nc(C)nc2c1nc(C)n2-c1ccc(C(C)C)cc1Br
6.1 nM	CCCCN(CCCC)c1nc(C)nc2c1ncn2-c1ccc(C(C)C)cc1Br
5.7 nM	CCC(CC)Nc1nc(C)nc2c1nnn2-c1c(C)cc(C)cc1C
5.2 nM	CCCCN(CC)c1nc(C)nc2c1ncn2-c1c(Cl)cc(OC)cc1OC
5.1 nM	CCCCC(CC)Nc1nc(C)nc2c1ncn2-c1ccc(C(C)C)cc1Br (stereo unspecified)
4.7 nM	COCCN(CCOC)c1cc(C)nc2c1nnn2-c1ccc(C(C)C)cc1SC
4.4 nM	CCCCN(CC)c1nc(C)nc2c1nnn2-c1c(Cl)cc(OC)cc1OC
4.3 nM	CCCCN(CC)c1nc(C)nc2c1ncn2-c1ccc(C(C)C)cc1Br
3.6 nM	CCCC(CCC)Nc1nc(C)nc2c1ncn2-c1ccc(C(C)C)cc1Br
3.5 nM	CCCCN(CC)c1nc(C)nc2c1ncn2-c1c(Br)cc(OC)cc1OC
3.5 nM	CCCCN(CC)c1nc(C)nc2c1nc(C)n2-c1c(Cl)cc(OC)cc1OC
3 nM	CCCCN(CC)c1nc(C)nc2c1nnn2-c1c(Br)cc(OC)cc1OC
1.9 nM	CCC(CC)Oc1nc(C)nc2c1nnn2-c1ccc(C(C)C)cc1Br
1.5 nM	CCCCC(CC)Oc1nc(C)nc2c1nnn2-c1ccc(C(C)C)cc1Br (stereo unspecified)
